Test results from ChEMBL document CHEMBL1201862, “PubChem BioAssay data set” (2004).
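Cells were grown in 96-well plates and exposed to each compound for 48 hours at five concentrations; endpoints were interpolated linearly between bracketing concentrations, or set to the highest concentration if not reached. GI50: concentration for 50% inhibition of growth.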 Activity calls are given as the source filed them. Cut-off read from the data, not from the text of the source: active = GI50 up to about 1.1 µM and inactive = higher.

Columns and labels:
Experiment in all cases: inhibition of tumour cell growth, NCI panel, 48 h
K562 = tested on: K562
Hs-578T = tested on: Hs-578T
M14 = tested on: M14
LOX IMVI = tested on: LOX IMVI
BT-549 = tested on: BT-549
OVCAR-8 = tested on: OVCAR-8
OVCAR-3 = tested on: OVCAR-3
NCI-H460 = tested on: NCI-H460
MDA-MB-231 = tested on: MDA-MB-231
SK-MEL-2 = tested on: SK-MEL-2
SF-268 = tested on: SF-268
NCI/ADR-RES = tested on: NCI/ADR-RES
DU-145 = tested on: DU-145
OVCAR-5 = tested on: OVCAR-5
T47D = tested on: T47D
CAKI-1 = tested on: CAKI-1
HT-29 = tested on: HT-29
NCI-H23 = tested on: NCI-H23
SF-295 = tested on: SF-295

Compound | GI50 (K562) | GI50 (Hs-578T) | GI50 (M14) | GI50 (LOX IMVI) | GI50 (BT-549) | GI50 (OVCAR-8) | GI50 (OVCAR-3) | GI50 (NCI-H460) | GI50 (MDA-MB-231) | GI50 (SK-MEL-2) | GI50 (SF-268) | GI50 (NCI/ADR-RES) | GI50 (DU-145) | GI50 (OVCAR-5) | GI50 (T47D) | GI50 (CAKI-1) | GI50 (HT-29) | GI50 (NCI-H23) | GI50 (SF-295)
Cc1c(C#N)c2nnn(-c3ccc(Cl)cc3)c(=O)n2c1-c1ccccc1 | 0.0586 µM (active) | 0.158 µM (active) | 0.0608 µM (active) | 0.221 µM (active) | 0.37 µM (active) | 0.163 µM (active) | 0.047 µM (active) | 0.0991 µM (active) | 0.102 µM (active) | 0.0746 µM (active) | 0.199 µM (active) | 0.0693 µM (active) | 0.0895 µM (active) | 0.247 µM (active) | 6.58 µM (inactive) | 0.251 µM (active) | 0.0553 µM (active) | 0.167 µM (active) | 0.0531 µM (active)
CN(O)C(=O)c1ccc(OCc2cccc(Cl)c2)cc1 | 22.6 µM (inactive) | 71.3 µM (inactive) | 16.7 µM (inactive) | 7.94 µM (inactive) | 22.8 µM (inactive) | 19 µM (inactive) | 19.2 µM (inactive) | 9.4 µM (inactive) | > 81.1 µM (inactive) | 34.4 µM (inactive) | 21.2 µM (inactive) | 13.7 µM (inactive) | 27.4 µM (inactive) | > 62.1 µM (inactive) | 43.1 µM (inactive) | 18.5 µM (inactive) | 14.6 µM (inactive) | 11.4 µM (inactive) | 13.2 µM (inactive)
N#CCc1nc(Cc2ccccc2)n[nH]1 | > 100 µM (inactive) | > 100 µM (inactive) | > 100 µM (inactive) | > 100 µM (inactive) | > 100 µM (inactive) | > 100 µM (inactive) | > 100 µM (inactive) | > 100 µM (inactive) | > 100 µM (inactive) | > 100 µM (inactive) | > 100 µM (inactive) | > 100 µM (inactive) | > 100 µM (inactive) | > 100 µM (inactive) | > 100 µM (inactive) | > 100 µM (inactive) | > 100 µM (inactive) | > 100 µM (inactive) | > 100 µM (inactive)
C=C(O)c1ccccc1C#Cc1ccccc1C(=O)OC | > 10 µM (inactive) | > 10 µM (inactive) | > 10 µM (inactive) | > 10 µM (inactive) | > 10 µM (inactive) | > 10 µM (inactive) | > 10 µM (inactive) | > 10 µM (inactive) | > 10 µM (inactive) | > 10 µM (inactive) | > 10 µM (inactive) | > 10 µM (inactive) | > 10 µM (inactive) | > 10 µM (inactive) | > 10 µM (inactive) | > 10 µM (inactive) | > 10 µM (inactive) | > 10 µM (inactive) | > 10 µM (inactive)
S=C1SSC2N=CC=CC12 (centres undefined) | 49.1 µM (inactive) | > 100 µM (inactive) | 85.5 µM (inactive) | 31.3 µM (inactive) | > 100 µM (inactive) | > 100 µM (inactive) | > 100 µM (inactive) | 31.4 µM (inactive) | > 100 µM (inactive) | > 100 µM (inactive) | > 100 µM (inactive) | > 100 µM (inactive) | > 100 µM (inactive) | > 100 µM (inactive) | 93.5 µM (inactive) | 19.7 µM (inactive) | > 100 µM (inactive) | > 100 µM (inactive) | 84.9 µM (inactive)
O=C1CC2C(=O)C1C(C(=O)O)C2C(=O)O (centres undefined) | > 100 µM (inactive) | > 100 µM (inactive) | > 100 µM (inactive) | > 100 µM (inactive) | > 100 µM (inactive) | > 100 µM (inactive) | > 100 µM (inactive) | > 100 µM (inactive) | > 100 µM (inactive) | > 100 µM (inactive) | > 100 µM (inactive) | > 100 µM (inactive) | > 100 µM (inactive) | > 100 µM (inactive) | > 100 µM (inactive) | > 100 µM (inactive) | > 100 µM (inactive) | > 100 µM (inactive) | > 100 µM (inactive)
O=C1C=CC[C@H](/C=C/C[C@@H](O)C[C@H](O)/C=C/c2ccccc2)O1 | 10.9 µM (inactive) | 19.3 µM (inactive) | 14.4 µM (inactive) | 2.92 µM (inactive) | 10.8 µM (inactive) | 14.4 µM (inactive) | 11.5 µM (inactive) | 15.3 µM (inactive) | 10.5 µM (inactive) | 12.3 µM (inactive) | 21.8 µM (inactive) | 19.1 µM (inactive) | 13.3 µM (inactive) | 15.1 µM (inactive) | 14.3 µM (inactive) | 6.4 µM (inactive) | 11.4 µM (inactive) | 11.3 µM (inactive) | 15.7 µM (inactive)
COC(=O)C1=C(O)C(C(=O)OC)[C@@]2(O)[C@@H](C(=O)OC)C(c3ccc(OC(=O)/C(=C/c4ccccc4)c4ccccc4)cc3)C[C@@H]1[C@@H]2C(=O)OC (some centres undefined) | 9.25 µM (inactive) | 27.7 µM (inactive) | 7.03 µM (inactive) | 4.71 µM (inactive) | > 100 µM (inactive) | 14.1 µM (inactive) | 35.6 µM (inactive) | 5.21 µM (inactive) | 23.9 µM (inactive) | 14.9 µM (inactive) | 47.3 µM (inactive) | 44.2 µM (inactive) | 20.5 µM (inactive) | 80.4 µM (inactive) | > 100 µM (inactive) | 11.9 µM (inactive) | 25.4 µM (inactive) | > 100 µM (inactive) | 38.1 µM (inactive)
O=C1c2ccccc2S(=O)(=O)c2ccccc21 | > 100 µM (inactive) | 72.1 µM (inactive) | > 100 µM (inactive) | > 100 µM (inactive) | > 100 µM (inactive) | > 100 µM (inactive) | > 100 µM (inactive) | > 100 µM (inactive) | > 100 µM (inactive) | > 100 µM (inactive) | > 100 µM (inactive) | > 100 µM (inactive) | > 100 µM (inactive) | > 100 µM (inactive) | > 100 µM (inactive) | > 100 µM (inactive) | > 100 µM (inactive) | > 100 µM (inactive) | > 100 µM (inactive)
O=C(/C=C/c1ccccc1)c1ccccc1 [CHALCONE] | > 4.84 µM (inactive) | > 10 µM (inactive) | > 10 µM (inactive) | 1.9 µM (inactive) | > 10 µM (inactive) | > 10 µM (inactive) | > 10 µM (inactive) | > 9.55 µM (inactive) | > 10 µM (inactive) | > 10 µM (inactive) | > 10 µM (inactive) | > 10 µM (inactive) | > 10 µM (inactive) | > 10 µM (inactive) | > 10 µM (inactive) | > 10 µM (inactive) | 6.07 µM (inactive) | > 10 µM (inactive) | > 10 µM (inactive)
O=C1c2scnc2-c2nccc3c2c1nc1ccccc13 [KUANONIAMINE A] | 0.682 µM (active) | 1.8 µM (inactive) | 0.564 µM (active) | 0.172 µM (active) | 1.25 µM (inactive) | 0.226 µM (active) | < 0.0134 µM (active) | 0.372 µM (active) | 0.318 µM (active) | 1.01 µM (active) | 1.78 µM (inactive) | 0.231 µM (active) | 1.6 µM (inactive) | 2.63 µM (inactive) | 0.215 µM (active) | 1.63 µM (inactive) | 2.55 µM (inactive) | 0.223 µM (active) | 1.58 µM (inactive)
